# “Also recorded” adds a separate entry of the source.
# Key:
# P-gp (MDR1) = target: T1, P-gp (MDR1) (Homo sapiens, UniProt P08183); assay: Bidirectional permeability in gMDCK cells overexpressing human P-gp (gMDCK-MDR1); format: in vitro ADME; conditions: human, MDCK-MDR1, pH 7.4; gMDCK-MDR1
# T1 construct: expressed in transfected cells; host or cells: gMDCK (P-gp-knockout Madin-Darby Canine Kidney cells), puromycin selection
# Method: (§1) gMDCK cells were maintained in Dulbecco’s Modified Eagle’s Medium (DMEM) supplemented with Gibco’s MEM amino acids solution (1 X), penicillin (100 units/mL), streptomycin ([…]), and 10% fetal bovine serum and in a humidified, 37 °C, 5% CO2 environment as previously described. Efflux transporter-expressing gMDCK cells, gMDCK-P-gp and gMDCK-BCRP, were cultured in the above-mentioned medium with addition of puromycin (2 µg/mL). All cells were passaged at approximately 80% confluency in T-175 flasks. For permeability assays, gMDCK, gMDCK-P-gp, and gMDCK-BCRP cells were seeded on 96 transwell plates (approximately 40,000 cells/well) and allowed to grow for 48 h in a 37 °C, 5% CO2 environment. Digitonin (10–40 mg/L) was included in some experiments to loosen tight junctions to explore paracellular permeability. TEER values were measured on the day of the experiment using an EVOM^TM Auto (World Precision Instruments, Sarasota, FL, USA).
# (§2) Lenalidomide dosing solutions (1–500 µM) were diluted from DMSO stock (500 mM) with HEPES-buffered HBSS (with Ca^2+ and Mg^2+, 10 mM HEPES, pH 7.4) + 20 µM Lucifer yellow resulting in a final DMSO content of 0.2%. Lucifer yellow was measured fluorometrically (Ex/Em 428/532 nm) to assess tight junctions/paracellular transport. Permeability of lenalidomide was assessed bidirectionally in both in vitro models over three hours, and cell monolayers were collected at the end of the experiment.
# (§3) Briefly, for assessing apical to basolateral (A to B) permeability, 150 uL of lenalidomide dosing solutions was added to apical side of the transwell, and 250 uL of HEPES-buffered HBSS without Lucifer yellow was added to basolateral side. For evaluating basolateral to apical (B to A) permeability, 250 uL of dosing solutions was added to the basolateral side, and 150 uL of HEPES-buffered HBSS without Lucifer yellow was added to the apical side. An amount of 10 µL was sampled from the dosing side of the transwell at the beginning and the end of the experiment. An amount of 25 µL was sampled from the receiver side at 1, 2, and 3 h.
# (§4) Apparent permeability (Papp) was calculated according to the following equation: Papp = (dQ/dt)/(A * C), where dQ/dt is the amount of drug that crosses the membrane per unit of time, A is the surface area of the membrane through which the drug is permeating (0.143 cm^2), and C is the initial concentration added to cells. The efflux ratio was calculated according to the following equation:(4) Efflux ratio= Papp basolateral to apical/Papp apical to basolateral
# human P-gp = target: T2, human P-gp (Homo sapiens, UniProt P08183); assay: as above; format: in vitro ADME; conditions: gMDCK P-gp overexpressing cells and organoids
# T2 construct: expressed in transfected cells; host or cells: gMDCK (P-gp-knockout Madin-Darby Canine Kidney cells), puromycin selection
# T2 sequence (P08183 whole entry): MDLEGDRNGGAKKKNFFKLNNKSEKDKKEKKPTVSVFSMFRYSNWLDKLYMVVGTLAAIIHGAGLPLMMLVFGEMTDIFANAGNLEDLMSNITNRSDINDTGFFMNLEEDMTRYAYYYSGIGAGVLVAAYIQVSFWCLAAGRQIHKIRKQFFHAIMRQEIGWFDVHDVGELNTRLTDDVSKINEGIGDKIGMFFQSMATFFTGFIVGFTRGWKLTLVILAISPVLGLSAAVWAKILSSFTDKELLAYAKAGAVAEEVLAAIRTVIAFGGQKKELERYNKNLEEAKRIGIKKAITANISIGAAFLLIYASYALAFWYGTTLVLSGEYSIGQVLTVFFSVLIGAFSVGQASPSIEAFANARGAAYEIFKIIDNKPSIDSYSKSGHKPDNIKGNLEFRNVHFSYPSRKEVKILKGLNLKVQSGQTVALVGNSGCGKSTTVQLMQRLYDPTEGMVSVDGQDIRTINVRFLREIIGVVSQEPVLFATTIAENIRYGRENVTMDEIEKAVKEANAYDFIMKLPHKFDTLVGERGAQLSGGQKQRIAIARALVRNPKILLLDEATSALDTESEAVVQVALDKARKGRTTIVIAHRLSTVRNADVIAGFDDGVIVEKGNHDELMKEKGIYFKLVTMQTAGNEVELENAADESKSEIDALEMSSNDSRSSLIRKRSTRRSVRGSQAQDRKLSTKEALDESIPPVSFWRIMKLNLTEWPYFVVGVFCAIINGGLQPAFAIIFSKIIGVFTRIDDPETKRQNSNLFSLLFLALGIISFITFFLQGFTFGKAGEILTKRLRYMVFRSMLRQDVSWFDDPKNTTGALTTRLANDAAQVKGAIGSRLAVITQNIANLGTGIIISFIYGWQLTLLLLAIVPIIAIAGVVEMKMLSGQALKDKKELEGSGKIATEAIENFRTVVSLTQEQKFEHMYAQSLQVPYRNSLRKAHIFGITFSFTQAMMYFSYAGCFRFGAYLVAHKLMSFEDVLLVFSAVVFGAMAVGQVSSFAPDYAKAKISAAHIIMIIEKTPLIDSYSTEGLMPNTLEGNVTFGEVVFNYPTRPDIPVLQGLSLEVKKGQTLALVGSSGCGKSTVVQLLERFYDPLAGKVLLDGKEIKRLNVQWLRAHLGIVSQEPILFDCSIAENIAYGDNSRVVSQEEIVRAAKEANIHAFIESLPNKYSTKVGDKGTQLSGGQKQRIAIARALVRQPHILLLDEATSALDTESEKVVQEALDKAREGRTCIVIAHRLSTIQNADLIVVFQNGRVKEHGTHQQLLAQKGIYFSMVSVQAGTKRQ
# Method: as §1, §2, §3, §4
# BCRP = target: T3, BCRP (Homo sapiens, UniProt Q9UNQ0); assay: Bidirectional permeability in gMDCK cells overexpressing human BCRP (gMDCK-BCRP); format: in vitro ADME
# T3 construct: expressed in transfected cells; host or cells: gMDCK (P-gp-knockout Madin-Darby Canine Kidney cells), puromycin selection
# T3 sequence (Q9UNQ0 1-655): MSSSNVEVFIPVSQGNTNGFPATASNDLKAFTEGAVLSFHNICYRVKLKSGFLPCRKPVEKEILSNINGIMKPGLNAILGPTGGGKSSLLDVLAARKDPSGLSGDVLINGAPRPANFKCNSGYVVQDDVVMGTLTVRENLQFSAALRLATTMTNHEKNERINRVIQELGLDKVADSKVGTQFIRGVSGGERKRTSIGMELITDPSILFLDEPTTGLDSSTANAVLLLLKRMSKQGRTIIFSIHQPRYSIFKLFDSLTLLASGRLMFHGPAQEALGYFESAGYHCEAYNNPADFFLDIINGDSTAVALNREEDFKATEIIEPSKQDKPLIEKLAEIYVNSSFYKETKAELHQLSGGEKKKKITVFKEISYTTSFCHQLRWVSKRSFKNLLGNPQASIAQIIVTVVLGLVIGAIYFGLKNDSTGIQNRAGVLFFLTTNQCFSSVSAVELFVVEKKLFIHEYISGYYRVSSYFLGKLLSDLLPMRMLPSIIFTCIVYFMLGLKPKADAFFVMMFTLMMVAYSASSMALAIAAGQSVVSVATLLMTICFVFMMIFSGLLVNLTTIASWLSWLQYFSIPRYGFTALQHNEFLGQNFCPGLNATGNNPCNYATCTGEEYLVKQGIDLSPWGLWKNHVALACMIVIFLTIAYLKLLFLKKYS
# Method: as §1, §2, §3, §4
# [1] = cited from earlier work
# [2] = tested on: MDCK cells and other traditional in vitro systems; conditions: cited from earlier work
# [3] = gMDCK (P-gp knockout MDCK) monolayer permeability assay; conditions: dog, MDCK
# gMDCK monolayers = assay: as above
# [4] = tested on: human intestinal organoid-derived monolayer (RepliGut); assay: RepliGut human jejunal organoid-derived monolayer permeability assay
# [5] = Lenalidomide Permeability in gMDCK Cells, FaSSIF
# [6] = Lenalidomide Permeability in gMDCK Cells, FeSSIF
# [7] = pH 7.4, Lenalidomide Permeability in gMDCK Cells, 4% BSA in receiver compartment
# [8] = pH 7.4, Lenalidomide Permeability in gMDCK Cells, shaking (1000 rpm)
# [9] = pH 7.4, Lenalidomide Permeability in gMDCK Cells, typical assay conditions
# T1 sequence (P08183 whole entry): as the sequence (P08183 whole entry) above
smiles,measurement,setting,value
Nc1cccc2c1CN(C1CCC(=O)NC1=O)C2=O (centres unmarked) [Lenalidomide],Papp A→B at 3 h,P-gp (MDR1),2 nm/s
same,Papp B→A at 3 h,P-gp (MDR1),28 nm/s
same,efflux ratio at 3 h,P-gp (MDR1),14
same,P-gp substrate,human P-gp,substrate for both transporters; also recorded: substrate of both P-gp and BCRP
same,BCRP substrate,BCRP; gMDCK BCRP overexpressing cells and organoids,substrate for both transporters; also recorded: substrate of both P-gp and BCRP
same,Papp A→B at 3 h,"BCRP; human, pH 7.4, gMDCK-BCRP",1.5 nm/s
same,Papp B→A at 3 h,"BCRP; human, pH 7.4, gMDCK-BCRP",24 nm/s
same,efflux ratio at 3 h,"BCRP; human, pH 7.4, gMDCK-BCRP",16
same,LogP (o/w),"[1]; Figure 1, ref PubChem",< 1
same,pKa,[1]; lower pKa,2.3
same,LogP,[1]; ref PubChem,−0.40
same,BCS class,[2],3
same,In vitro permeability,[2],Low
same,"Papp at 3 h, 10 µM",[3]; [5],2.7 nm/s
same,"Papp at 3 h, 50 µM",[3]; [5],2.8 nm/s
same,"Papp at 3 h, 250 µM",[3]; [5],1.7 nm/s
same,"Papp at 3 h, 500 µM","[3]; Lenalidomide Permeability in gMDCK Cells, FaSSIF, 500 uM",1.3 nm/s
same,"Papp at 3 h, 10 µM",[3]; [6],0.7 nm/s
same,"Papp at 3 h, 50 µM",[3]; [6],1.4 nm/s
same,"Papp at 3 h, 250 µM",[3]; [6],1 nm/s
same,"Papp at 3 h, 500 µM","[3]; Lenalidomide Permeability in gMDCK Cells, FeSSIF, 500 uM",1.4 nm/s
same,Papp A→B at 3 h,[3]; pH 7.4,2.1 nm/s
same,Papp B→A at 3 h,[3]; pH 7.4,1.3 nm/s
same,efflux ratio at 3 h,[3]; pH 7.4,0.62
same,"Papp at 3 h, 10 µM",[3]; [7],1.2 nm/s
same,"Papp at 3 h, 50 µM",[3]; [7],1.6 nm/s
same,"Papp at 3 h, 250 µM",[3]; [7],1.5 nm/s
same,"Papp at 3 h, 500 µM","[3]; pH 7.4, Lenalidomide Permeability in gMDCK Cells, 4% BSA in receiver compartment, 500 uM",1.5 nm/s
same,"Papp at 3 h, 10 µM",[3]; [8],0.3 nm/s
same,"Papp at 3 h, 50 µM",[3]; [8],0.3 nm/s
same,"Papp at 3 h, 250 µM",[3]; [8],1.4 nm/s
same,"Papp at 3 h, 500 µM","[3]; pH 7.4, Lenalidomide Permeability in gMDCK Cells, shaking (1000 rpm), 500 uM",2.1 nm/s
same,"Papp at 3 h, 10 µM",[3]; [9],1.9 nm/s
same,"Papp at 3 h, 50 µM",[3]; [9],2.2 nm/s
same,"Papp at 3 h, 250 µM",[3]; [9],2.4 nm/s
same,"Papp at 3 h, 500 µM","[3]; pH 7.4, Lenalidomide Permeability in gMDCK Cells, typical assay conditions, 500 uM",2.4 nm/s
same,Papp at 3 h,"[3]; pH 7.4, apparent permeability (Papp), gMDCK cell monolayers, independent of concentration",~2 nm/s
same,"Papp at 3 h, 500 µM","[3]; pH 7.4, gMDCK Papp, lenalidomide 500 µM, apical to basolateral, n=3 biological replicates",2.1 nm/s
same,effect of 4% bovine serum albumin in the receiver side on apparent permeability,"gMDCK monolayers; gMDCK, sink condition",did not increase
same,effect of shaking gMDCK cells during the permeability assay on permeability,gMDCK monolayers; shaking transwell plate at 1000 rpm,did not significantly change
same,Efflux Substrate,[4]; Yes/No,Yes
same,intracellular concentrations in intestinal organoids with and without elacridar,[4]; apical dosing,similar
same,"accumulation in cells, gMDCK vs organoids",[4]; basolateral dosing,greater in gMDCK cells than organoids
same,"intracellular accumulation in organoids, lower than gMDCK",[4]; basolateral to apical direction,approximately 10 fold
same,"accumulation in the cellular compartment, organoid vs gMDCK monolayers",[4]; dosed apically,no significant difference
same,apical to basolateral apparent permeability in intestinal organoids compared with gMDCK monolayers,[4]; organoid vs gMDCK,significantly higher
same,basolateral to apical permeability in intestinal organoids compared with gMDCK cells,[4]; organoid vs gMDCK,significantly higher

# Reference: article PMC12473906, “Comparing the Altis RepliGut Organoid System to MDCK Monolayers in Predicting the Oral Absorption of Lenalidomide” (Pharmaceutics, 2025)
